Laboratory results: paper PMC7385619, “A triple action CDK4/6-PI3K-BET inhibitor with augmented cancer cell cytotoxicity” (Cell Discovery, 2020)

Tests used:
BRD2 (BD1) = biological target: T1, BRD2 (BD1) (Homo sapiens, UniProt P25440); experiment: AlphaScreen bromodomain binding assay, BRD2 BD1; details: Fig. 1b; italicized values from the literature (italics not visible)
T1 construct: tagged bromodomains and acetylated histone peptides as; purchased Reaction Biology

CDK6 = biological target: T2, CDK6 (Homo sapiens, UniProt Q00534); experiment: In vitro kinase assay, CDK6; format: biochemical; details: Fig. 1b; italicized values from the literature (italics not visible)
T2 construct: purchased Reaction Biology
T2 sequence (Q00534 whole entry): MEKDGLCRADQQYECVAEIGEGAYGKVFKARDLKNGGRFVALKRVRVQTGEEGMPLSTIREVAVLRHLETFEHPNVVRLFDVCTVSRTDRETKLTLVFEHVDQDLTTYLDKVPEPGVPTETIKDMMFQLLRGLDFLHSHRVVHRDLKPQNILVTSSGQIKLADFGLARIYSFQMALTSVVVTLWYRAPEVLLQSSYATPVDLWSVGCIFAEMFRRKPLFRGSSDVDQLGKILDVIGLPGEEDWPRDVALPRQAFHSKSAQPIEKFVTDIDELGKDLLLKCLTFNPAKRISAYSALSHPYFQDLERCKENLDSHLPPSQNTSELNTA
T2 sequence (P24385 whole entry partner): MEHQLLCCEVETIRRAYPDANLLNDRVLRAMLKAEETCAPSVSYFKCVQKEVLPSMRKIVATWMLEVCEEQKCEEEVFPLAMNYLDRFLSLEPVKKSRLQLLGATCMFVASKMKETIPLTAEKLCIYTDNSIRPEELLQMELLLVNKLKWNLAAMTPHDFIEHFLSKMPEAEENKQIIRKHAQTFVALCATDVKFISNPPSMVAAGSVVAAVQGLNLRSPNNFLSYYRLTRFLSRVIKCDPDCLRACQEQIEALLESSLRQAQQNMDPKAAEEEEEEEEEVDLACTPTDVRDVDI

T1 sequence (P25440 74-180 limits assumed): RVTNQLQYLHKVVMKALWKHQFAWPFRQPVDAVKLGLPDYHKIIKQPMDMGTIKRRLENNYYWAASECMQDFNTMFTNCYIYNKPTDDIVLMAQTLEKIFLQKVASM

SMILES: CN(C)C(=O)c1cc2cnc(Nc3ccc(-c4csc5c(=O)cc(N6CCOCC6)oc45)cc3)nc2n1C1CCCC1 [SRX3177]
- IC50 (BRD2 (BD1)): 1410 nM
- IC50 (CDK6): 3.3 nM
